Measured values reported in ChEMBL document CHEMBL3045011, “Synthesis and Herbicidal Activities of 2-(5-Isoxazolyloxy)-acetamide Derivatives” (J Pestic Sci, 1998).
Calls of active or inactive are those of the source. The rule behind the calls is not given here.

Assays:
[1] = test system: Amaranthus viridis; assay: Herbicidal activity against Amaranthus viridis assessed as seedling death under green house at 4 kg/ha at 25 degC measured after 4 weeks; assay type: functional, organism-based
[2] = test system: Persicaria lapathifolia; assay: Herbicidal activity against Persicaria lapathifolia assessed as seedling death under green house at 4 kg/ha at 25 degC measured after 4 weeks; assay type: functional, organism-based
[3] = test system: Digitaria ciliaris; assay: Herbicidal activity against Digitaria ciliaris assessed as seedling death under green house at 4 kg/ha at 25 degC measured after 4 weeks; assay type: functional, organism-based
[4] = test system: Echinochloa crus-galli; assay: Herbicidal activity against Echinochloa crus-galli (barnyard grass) assessed as seedling death under green house at 4 kg/ha at 25 degC measured after 4 weeks; assay type: functional, organism-based
[5] = test system: Amaranthus viridis; assay: Herbicidal activity against Amaranthus viridis assessed as seedling death under green house at 0.5 kg/ha at 25 degC measured after 4 weeks; assay type: functional, organism-based
[6] = test system: Amaranthus viridis; assay: Herbicidal activity against Amaranthus viridis assessed as seedling death under green house at 1 kg/ha at 25 degC measured after 4 weeks; assay type: functional, organism-based
[7] = test system: Echinochloa crus-galli; assay: Herbicidal activity against Echinochloa crus-galli (barnyard grass) assessed as seedling death under green house at 1 kg/ha at 25 degC measured after 4 weeks; assay type: functional, organism-based
[8] = test system: Digitaria ciliaris; assay: Herbicidal activity against Digitaria ciliaris assessed as seedling death under green house at 0.5 kg/ha at 25 degC measured after 4 weeks; assay type: functional, organism-based
[9] = test system: Digitaria ciliaris; assay: Herbicidal activity against Digitaria ciliaris assessed as seedling death under green house at 1 kg/ha at 25 degC measured after 4 weeks; assay type: functional, organism-based
[10] = test system: Echinochloa crus-galli; assay: Herbicidal activity against Echinochloa crus-galli (barnyard grass) assessed as seedling death under green house at 0.5 kg/ha at 25 degC measured after 4 weeks; assay type: functional, organism-based
[11] = test system: Persicaria lapathifolia; assay: Herbicidal activity against Persicaria lapathifolia assessed as seedling death under green house at 0.5 kg/ha at 25 degC measured after 4 weeks; assay type: functional, organism-based
[12] = test system: Persicaria lapathifolia; assay: Herbicidal activity against Persicaria lapathifolia assessed as seedling death under green house at 1 kg/ha at 25 degC measured after 4 weeks; assay type: functional, organism-based
[13] = test system: Echinochloa crus-galli; assay: Herbicidal activity against Echinochloa crus-galli (barnyard grass) assessed as seedling death under green house at 0.25 kg/ha at 25 degC measured after 4 weeks; assay type: functional, organism-based
[14] = test system: Digitaria ciliaris; assay: Herbicidal activity against Digitaria ciliaris assessed as seedling death under green house at 0.25 kg/ha at 25 degC measured after 4 weeks; assay type: functional, organism-based
[15] = test system: Amaranthus viridis; assay: Herbicidal activity against Amaranthus viridis assessed as seedling death under green house at 0.25 kg/ha at 25 degC measured after 4 weeks; assay type: functional, organism-based
[16] = test system: Gossypium hirsutum; assay: Toxicity in Gossypium hirsutum cv. Hakushuu (cotton) assessed as seedling death under green house at 0.25 kg/ha at 25 degC measured after 4 weeks by crop selectivity assay; assay type: organism-based; settings: in vivo, 672 h
[17] = test system: Glycine max; assay: Toxicity in Glycine max cv. Tamahomare (soybean) assessed as seedling death under green house at 0.5 kg/ha at 25 degC measured after 4 weeks by crop selectivity assay; assay type: organism-based; settings: in vivo, 672 h
[18] = test system: Gossypium hirsutum; assay: Toxicity in Gossypium hirsutum cv. Hakushuu (cotton) assessed as seedling death under green house at 0.5 kg/ha at 25 degC measured after 4 weeks by crop selectivity assay; assay type: organism-based; settings: in vivo, 672 h

| SMILES | Activity [6] | Activity [7] | Activity [8] | Activity [9] | Activity [10] | Activity [11] | also measured |
| --- | --- | --- | --- | --- | --- | --- | --- |
| Cc1c(C(F)(F)F)noc1OCC(=O)N(C)c1c(Cl)cccc1Cl | – | – | – | – | – | – | Activity [1]: inactive; Activity [2]: inactive |
| CCc1noc(OCC(=O)N(C)c2ccccc2)c1-c1ccccc1 | – | – | – | – | – | – | Activity [2]: inactive |
| Cc1c(C(F)(F)F)noc1OCC(=O)N(C)c1ccccc1-c1ccccc1 | – | – | – | – | – | – | Activity [1]: inactive; Activity [2]: inactive; Activity [3]: inactive; Activity [4]: inactive |
| Cc1ccccc1N(C)C(=O)COc1onc(C(F)(F)F)c1C | Active | Active | Active | Active | Active | – | Activity [5]: Active |
| CN(C(=O)COc1cc(-c2ccccc2)no1)c1ccccc1 | – | – | – | – | – | – | Activity [1]: inactive; Activity [2]: inactive; Activity [3]: inactive; Activity [4]: inactive |
| COc1ccc(N(C)C(=O)COc2onc(C(F)(F)F)c2C)cc1 | Active | Active | Active | Active | Active | inactive | Activity [5]: Active |
| Cc1c(C(F)(F)F)noc1OCC(=O)N(C)c1c(F)cccc1F | – | Active | – | – | – | inactive | Activity [12]: inactive |
| CN(C(=O)COc1cc(C(C)(C)C)no1)c1ccccc1 | – | – | – | – | – | – | Activity [1]: inactive; Activity [2]: inactive; Activity [3]: inactive |
| CN(C(=O)COc1onc(-c2ccccc2)c1Br)c1ccccc1 | – | – | – | – | – | – | Activity [1]: inactive; Activity [2]: inactive |
| Cc1cccc(N(C)C(=O)COc2onc(C(F)(F)F)c2C)c1C | – | Active | Active | Active | Active | inactive | – |
| CCc1cccc(N(C)C(=O)COc2onc(C(F)(F)F)c2C)c1 | Active | Active | Active | Active | Active | – | Activity [5]: Active |
| Cc1c(C(F)(F)F)noc1OCC(=O)N(C)c1ccccc1Cl | Active | Active | Active | Active | Active | – | Activity [13]: Active; Activity [12]: Active; Activity [5]: Active; Activity [14]: Active; Activity [15]: Active; Activity [16]: Non-toxic |
| CCCc1ccc(N(C)C(=O)COc2onc(C(F)(F)F)c2C)cc1 | – | Active | – | – | Active | inactive | Activity [12]: inactive |
| Cc1c(C(F)(F)F)noc1OCC(=O)N(C)C(C)(C)C | – | – | – | – | – | – | Activity [1]: inactive; Activity [2]: inactive; Activity [3]: inactive; Activity [4]: inactive |
| CCc1ccc(N(C)C(=O)COc2onc(C(F)(F)F)c2C)cc1 | – | Active | Active | Active | Active | inactive | Activity [12]: inactive |
| CCN(C(=O)COc1onc(C(F)(F)F)c1C)c1ccccc1 | – | Active | Active | Active | Active | – | – |
| Cc1c(C(F)(F)F)noc1OCC(=O)N(C)c1ccc([N+](=O)[O-])cc1 | – | – | – | – | – | – | Activity [1]: inactive; Activity [2]: inactive |
| Cc1c(C(F)(F)F)noc1OCC(=O)N(C)c1ccccc1F | Active | Active | Active | Active | Active | – | Activity [5]: Active |
| Cc1c(C(F)(F)F)noc1OCC(=O)N(C)c1ccccc1I | Active | Active | Active | Active | Active | inactive | Activity [5]: Active |
| CCC(C)N(C)C(=O)COc1onc(C(F)(F)F)c1C (stereo unspecified) | – | – | Active | Active | Active | – | – |
| Cc1c(C(F)(F)F)noc1OCC(=O)N(C)c1ccc(Br)cc1 | inactive | Active | Active | Active | – | inactive | Activity [12]: inactive; Activity [5]: inactive |

| SMILES | Activity [6] | Activity [7] | Activity [8] | Activity [9] | Activity [10] | Activity [11] | also measured |
| --- | --- | --- | --- | --- | --- | --- | --- |
| COc1cccc(N(C)C(=O)COc2onc(C(F)(F)F)c2C)c1 | Active | Active | Active | Active | Active | – | – |
| COc1ccccc1N(C)C(=O)COc1onc(C(F)(F)F)c1C | – | Active | Active | Active | Active | – | – |
| Cc1c(Cl)cccc1N(C)C(=O)COc1onc(C(F)(F)F)c1C | – | Active | Active | Active | Active | – | – |
| Cc1cccc(N(C)C(=O)COc2onc(C(F)(F)F)c2C)c1 | Active | Active | Active | Active | Active | – | Activity [5]: Active |
| Cc1ccc(C)c(N(C)C(=O)COc2onc(C(F)(F)F)c2C)c1 | – | Active | – | – | Active | inactive | Activity [12]: inactive |
| CCCCN(C)C(=O)COc1onc(C(F)(F)F)c1C | – | – | – | – | – | inactive | – |
| CCc1c(C(F)(F)F)noc1OCC(=O)N(C)c1ccccc1 | Active | Active | Active | Active | Active | – | Activity [17]: Non-toxic; Activity [18]: Non-toxic |
| Cc1c(C(F)(F)F)noc1OCC(=O)N(C)c1ccc(F)cc1 | – | Active | Active | Active | Active | – | – |
| Cc1c(C(F)(F)F)noc1OCC(=O)N(C)c1cccc(Br)c1 | – | Active | Active | Active | Active | – | – |
| Cc1cccc(C)c1N(C)C(=O)COc1onc(C(F)(F)F)c1C | – | – | – | – | – | – | Activity [1]: inactive; Activity [2]: inactive; Activity [3]: inactive; Activity [4]: inactive |
| Cc1c(C(F)(F)F)noc1OCC(=O)N(c1ccccc1)C(C)C | – | Active | Active | Active | Active | – | – |
| CCCN(C(=O)COc1onc(C(F)(F)F)c1C)c1ccccc1 | – | Active | – | Active | Active | – | – |
| Cc1c(C(F)(F)F)noc1OCC(=O)Nc1ccccc1 | – | – | – | – | – | – | Activity [1]: inactive; Activity [2]: inactive; Activity [3]: inactive; Activity [4]: inactive |
| Cc1c(C(F)(F)F)noc1OCC(=O)N(C)c1ccccc1C(C)C | inactive | Active | – | Active | – | inactive | Activity [12]: inactive; Activity [5]: inactive |
| Cc1ccc(N(C)C(=O)COc2onc(C(F)(F)F)c2C)cc1 | Active | Active | Active | Active | Active | – | – |
| Cc1c(C(F)(F)F)noc1OCC(=O)N(C)c1ccc(Cl)cc1 | inactive | Active | – | Active | – | inactive | Activity [12]: inactive; Activity [5]: inactive |
| Cc1c(C(F)(F)F)noc1OCC(=O)N(C)c1cccc([N+](=O)[O-])c1 | – | – | – | Active | – | inactive | Activity [5]: inactive |
| Cc1c(C(F)(F)F)noc1OCC(=O)N(C)c1cccc(Cl)c1 | – | Active | Active | Active | Active | – | – |
| CCCCCN(C(=O)COc1onc(C(F)(F)F)c1C)c1ccccc1 | – | – | – | – | – | – | Activity [1]: inactive; Activity [2]: inactive; Activity [3]: inactive |
| Cc1c(C(F)(F)F)noc1OCC(=O)N(C)CC(C)C | – | Active | Active | Active | – | – | – |
| CCc1ccccc1N(C)C(=O)COc1onc(C(F)(F)F)c1C | – | Active | Active | Active | – | inactive | Activity [12]: inactive |
